Test results reported in BindingDB's records for doi:10.1016/j.bmc.2010.11.049 (Bryn Mawr College, 2011).

experiment: Inhibition of HIV1 YU2 gp120 binding to CD4 expressing Cf2Th-CD4/CCR5 cells assessed as inhibition of viral infection after 48 hrs

SMILES | IC50 [µM]
Cc1ccc(C(C)C)c(OCC(=O)NNC(=O)Nc2ccc(Cl)cc2)c1 [N-(4-chlorophenyl)-2-(2-(2-isopropyl-5-methylphenoxy)acetyl)hydrazinecarboxamide] | > 100
O=C(CSc1[nH]c(=O)nc2c1CCCC2)Nc1ccc(Cl)cc1 [N-(4-chlorophenyl)-2-(2-oxo-1,2,5,6,7,8-hexahydroquinazolin-4-ylthio)acetamide] | > 100
Cc1cc(SCC(=O)Nc2ccc(Cl)cc2)[nH]c(=O)n1 [N-(4-chlorophenyl)-2-(6-methyl-2-oxo-1,2-dihydropyrimidin-4-ylthio)acetamide] | > 100
O=C(Nc1ccc(Cl)cc1)c1cc2c([nH]c1=O)CCCC2 [N-(4-chlorophenyl)-2-oxo-1,2,5,6,7,8-hexahydroquinoline-3-carboxamide] | > 100
Cc1cccc(-c2cc(C(=O)Nc3ccc(Cl)cc3)[nH]n2)c1O [N-(4-chlorophenyl)-5-(2-hydroxy-3-methylphenyl)-1H-pyrazole-3-carboxamide] | > 100
O=C(Nc1ccc(Cl)cc1)c1cc(-n2cnnc2)n[nH]1 [N-(4-chlorophenyl)-5-(4H-1,2,4-triazol-4-yl)-1H-pyrazole-3-carboxamide] | > 100
CC1(C)CC(=O)c2cc(C(=O)Nc3ccc(Cl)cc3)c(=O)[nH]c2C1 [N-(4-chlorophenyl)-7,7-dimethyl-2,5-dioxo-1,2,5,6,7,8-hexahydroquinoline-3-carboxamide] | > 100
N=c1oc2cc(O)ccc2cc1C(=O)Nc1ccc(Cl)cc1 [N-(4-chlorophenyl)-7-hydroxy-2-imino-2H-chromene-3-carboxamide] | > 100
Cc1cc(OCC(=O)NCc2nnc[nH]2)ccc1Cl [N-((1H-1,2,4-triazol-3-yl)methyl)-2-(4-chloro-3-methylphenoxy)acetamide] | > 100
NC(=O)C1CCN(CCC(=O)Nc2ccc(Br)cc2)CC1 [cis-1-(3-(4-bromophenylamino)-3-oxopropyl)-4-carbamoylpiperidinium] | > 100
CC(C)C1CCN(CCC(=O)Nc2ccc(Br)cc2)CC1 [trans-1-(3-(4-bromophenylamino)-3-oxopropyl)-4-isopropylpiperidinium] | > 100
